Legend:
[1] = not given; remark: listed apart in the source
[2] = Phase I-II study of Lipoplatin combined with gemcitabine: toxicity, DLT, MTD; assay type: in vivo, human; conditions: combined with Lipoplatin 100 mg/m2, every two weeks
Method: Patients and Methods: The gemcitabine dose was kept standard at 1000 mg/m2 and the lipoplatin dose was escalated from 25 mg/m2 to 125 mg/m2. The treatment was administered to advanced pretreated pancreatic cancer patients who were refractory to previous chemotherapy which included gemcitabine.
Gemcitabine was given as a 60 min i.v. infusion in 500 ml normal saline on days 1 and 15 at a dose of 1000 mg/m2 and cycles were repeated every 4 weeks (28 days). The infusions on days 1 and 15 were considered to be 1 cycle. […] Prophylactic administration of recombinant human granulocyte colony-stimulating factor (rhG-CSF) was not allowed. In cases of grade 3 neutropenia, these patients would receive subsequent infusions of pegfilgrastim 6 mg, on the 6th or 7th day and treatment would be postponed for one week. Treatment was administered for at least three cycles or until disease progression. The study was a phase I/II cohort, dose escalation trial of Lipoplatin® and gemcitabine. Its aims were to determine the dose limiting toxicity (DLT) of the combination and to define the maximum tolerated dose (MTD) as a recommended dose for phase II and to collect preliminary data on the efficacy of the drug in pretreated patients with pancreatic cancer. […]

[3] = Total platinum in rat plasma after i.p. injection (pharmacokinetics, atomic absorption); conditions: female, Wistar, in vivo, ip, 15 mg/kg
Method: For pharmacokinetic studies 20 Wistar female rats, 2-3 months of age were used of an average body weight of 150 g. […] Two animals per time point were used. […] Blood was collected in heparinized Eppendorf tubes and was centrifuged. Total platinum levels in plasma was determined using furnace Atomic Absorption (AA700 Perkin Elmer).
At various time points postinjection blood was drawn, plasma was isolated and total platinum levels were measured for pharmacokinetic studies.
This was calculated by linear regression analysis of the logarithmic plasma concentration-time curve by the formula Kel=[Ln(Cp1)−Ln(Cp2)]/(t2−t1) where t1 and t2 are the starting and ending time points of measurements and Cp1 and Cp2 the starting and ending concentrations of total platinum in plasma for t1 and t2, respectively.
This was calculated by the formula: t½=0.693 (1/Kel). 1/Kel is the mean residence time (MRT), the statistical moment analogy to half-life t½ (Gibaldi et al, 1982).

[4] = Toxicity of i.v. doses in mice
[5] = system: human breast cancers in mice; test: Human breast cancer xenografts in mice, intravenous injections; conditions: 6 intravenous injections with 4 days intervals; Lipoxal 16 mg/Kg, oxaliplatin at its MTD
[6] = rats i.p., 15 mg/Kg (estimation) (Lipoplatin 30, cisplatin 5 mg/Kg)
[7] = rats i.p., Lipoplatin 30, cisplatin 5 mg/Kg
[8] = female, Wistar, rat, in vivo, ip, 15 mg/kg

SMILES: N.N.[Cl][Pt][Cl] [cisplatin, cis-PtCl2(NH3)2]
- maximum tolerated dose (rats i.p.): 5 mg/kg
- total platinum in liver from 24 to 150 h ([1]; rats i.p. 5 mg/Kg): 1
- time at which the liver level is attained ([1]; rats i.p., 15 mg/Kg (cisplatin 5 mg/Kg)): 20 min
- total platinum, Heart, 5 h [1, 6]: 0.2 mg Pt/g tissue
- total platinum, Kidney, 5 h [1, 6]: 6.8 mg Pt/g tissue
- total platinum, Liver, 5 h [1, 6]: 2.4 mg Pt/g tissue
- total platinum, Lung, 5 h [1, 6]: 0.7 mg Pt/g tissue
- total platinum, Spleen, 5 h [1, 6]: 1.2 mg Pt/g tissue
- total platinum, Brain, 5-7 days [1, 7]: 0 mg Pt/g tissue
- total platinum, Brain, 5 h [1, 7]: 0.1 mg Pt/g tissue
- total platinum, Brain, maximum (7-20 min) [1, 7]: 0.3 mg Pt/g tissue

SMILES: Nc1ccn([C@@H]2O[C@H](CO)[C@@H](O)C2(F)F)c(=O)n1 [gemcitabine]
- MTD of gemcitabine in the combination [2]: 1000 mg/m2

SMILES: O=C1[O][Pt]2([NH]C3CCCCC3[NH2+]2)[O]C1=O [oxaliplatin, cis-[(1R,2 R)-1,2-cyclohexanediamine-N,N][oxalato(2-)-O,O] platinum]
- time post-injection at which total platinum in plasma reaches zero [3]: ~100 h
- final body weight at 7 days (150 g before study) (15 mg/Kg i.p.): 109 g
- weight loss of total body weight during 7 days (15 mg/kg i.p.): over 40 gr
- Weight of total animal organ: Heart (15 mg/kg i.p., 7.8 or 7 days): 0.523 g
- Weight of total animal organ: Kidney (15 mg/kg i.p., 7.8 or 7 days): 0.475 g
- Weight of total animal organ: Lung (15 mg/kg i.p., 7.8 or 7 days): 0.934 g
- Weight of total animal organ: Spleen (15 mg/kg i.p., 7.8 or 7 days): 0.188 g
- weight loss (30 mg/Kg i.p., 7 days post-treatment): 33%
- average weight after 7 days (from 150 g) (30 mg/Kg i.p., day 7): 100 g
- hepatic toxicity / nephrotoxicity (rats i.p.): absence of nephrotoxicity
- Kel, kidney [1, 8]: 0.002 h⁻¹
- time at which the early spleen maximum is reached [1, 8]: 15 to 20 min
- Cl, kidney ([1]; rat, in vivo, ip, 15 mg/kg): 0.01 h⁻¹
- outcome of mice injected with 5 mg/Kg ([4]; 5 mg/Kg): died of toxicity
- MTD ([4]; mouse, in vivo): 4 mg/kg
- effect on human breast cancers in mice [5]: only cause shrinkage, not disappearance
